Test results: the supplement of paper PMC10307832

Compound: Cc1nc(NC(=O)N2CCC[C@H]2C(N)=O)sc1-c1ccnc(C(C)(C)C(F)(F)F)c1 [Alpelisib] + O=C(CCCCCCC(=O)Nc1ccccc1)NO [Vorinostat] (partner 1 µM)
Test: relative viability (nuclei count vs DMSO), 5 days (fraction); higher = more cells survive
Details: first compound 0.04 µM
How it was run: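 A single step with final 0.05% Triton X-100, 1% formaldehyde and 1 ug/ml Hoechst fixed the cells and stained nuclei 5 days after treatment. Lung cancer cell lines in 1536-well plates had been treated by pin tool the day after seeding with one drug alone or a fixed anchor-drug dose plus five library-drug doses (not always all listed) in √10 steps, and nuclei were counted on 4× images. Relative viability is the ratio of nuclei in treated wells to nuclei in vehicle wells, taken as the median of duplicate plates.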

| Cell Line | relative viability |
| --- | --- |
| HCC-15 | 0.913 |
| NCI-H1944 | 0.538 |
| EMC-BAC-2 | 0.448 |
| NCI-H1395 | 0.742 |
| LC-2-ad | 0.664 |
| NCI-H2085 | 0.801 |
| NCI-H647 | 0.772 |
| HARA | 0.528 |
| NCI-H3122 | 0.783 |
| NCI-H358 | 0.686 |
| CAL-12T | 0.755 |
| COR-L 105 | 0.867 |
| LCLC-97TM1 | 0.673 |
| NCI-H520 | 0.611 |
| NCI-H2228 | 0.714 |
| NCI-H23 | 0.634 |
| HCC-827 | 0.899 |
| NCI-H2347 | 0.524 |
| LXF-289 | 0.741 |
| NCI-H1666 | 0.978 |
| RERF-LC-KJ | 0.634 |
| NCI-H650 | 0.394 |
| NCI-H322M | 0.897 |
| NCI-H596 | 0.484 |

Same assay, conditions: first compound 0.1265 µM

| Cell Line | relative viability |
| --- | --- |
| A-427 | 0.861 |
| NCI-H2009 | 0.711 |
| EKVX | 0.657 |
| NCI-H2087 | 0.669 |
| NCI-H1734 | 0.686 |
| LCLC-103H | 0.744 |
| LU99A | 0.488 |
| NCI-H460 | 0.788 |
| SK-LU-1 | 0.775 |
| COR-L23 | 0.474 |
| HCC-15 | 0.863 |
| NCI-H1944 | 0.554 |
| NCI-H1395 | 0.565 |
| LC-2-ad | 0.721 |
| NCI-H2085 | 0.686 |
| NCI-H647 | 0.608 |
| HARA | 0.52 |

| Cell Line | relative viability |
| --- | --- |
| NCI-H3122 | 0.985 |
| NCI-H358 | 0.563 |
| CAL-12T | 0.783 |
| COR-L 105 | 0.86 |
| LCLC-97TM1 | 0.58 |
| NCI-H520 | 0.743 |
| NCI-H2228 | 0.48 |
| NCI-H23 | 0.441 |
| HCC-827 | 0.707 |
| NCI-H2347 | 0.598 |
| LXF-289 | 0.685 |
| NCI-H1666 | 1.1 |
| RERF-LC-KJ | 0.707 |
| NCI-H650 | 0.314 |
| NCI-H322M | 0.962 |
| NCI-H596 | 0.837 |

Same assay, conditions: first compound 0.4 µM

| Cell Line | relative viability |
| --- | --- |
| A-427 | 0.893 |
| NCI-H2009 | 0.784 |
| EKVX | 0.928 |
| NCI-H2087 | 0.583 |
| NCI-H1734 | 0.822 |
| LCLC-103H | 0.801 |
| LU99A | 0.508 |
| NCI-H460 | 0.938 |
| SK-LU-1 | 0.847 |
| COR-L23 | 0.398 |
| HCC-15 | 0.908 |
| NCI-H1944 | 0.597 |
| EMC-BAC-2 | 0.455 |
| NCI-H1395 | 0.773 |
| LC-2-ad | 0.744 |
| NCI-H2085 | 0.888 |
| NCI-H647 | 0.613 |

| Cell Line | relative viability |
| --- | --- |
| HARA | 0.511 |
| NCI-H3122 | 1.28 |
| NCI-H358 | 0.768 |
| CAL-12T | 0.948 |
| COR-L 105 | 0.784 |
| LCLC-97TM1 | 0.63 |
| NCI-H520 | 0.629 |
| NCI-H2228 | 0.401 |
| NCI-H23 | 0.411 |
| HCC-827 | 0.495 |
| NCI-H2347 | 0.766 |
| LXF-289 | 0.942 |
| NCI-H1666 | 1.07 |
| RERF-LC-KJ | 0.754 |
| NCI-H650 | 0.538 |
| NCI-H322M | 0.954 |
| NCI-H596 | 0.629 |

Same assay, conditions: first compound 1.265 µM

| Cell Line | relative viability |
| --- | --- |
| A-427 | 0.827 |
| NCI-H2009 | 0.669 |
| EKVX | 0.597 |
| NCI-H2087 | 0.647 |
| NCI-H1734 | 0.642 |
| LCLC-103H | 0.669 |
| LU99A | 0.415 |
| NCI-H460 | 0.564 |
| SK-LU-1 | 0.676 |
| COR-L23 | 0.283 |
| HCC-15 | 0.598 |
| NCI-H1944 | 0.399 |
| EMC-BAC-2 | 0.278 |
| NCI-H1395 | 0.62 |
| LC-2-ad | 0.575 |
| NCI-H2085 | 0.754 |
| NCI-H647 | 0.263 |

| Cell Line | relative viability |
| --- | --- |
| HARA | 0.305 |
| NCI-H3122 | 1.01 |
| NCI-H358 | 0.428 |
| CAL-12T | 0.468 |
| COR-L 105 | 0.668 |
| LCLC-97TM1 | 0.33 |
| NCI-H520 | 0.603 |
| NCI-H2228 | 0.566 |
| NCI-H23 | 0.414 |
| HCC-827 | 0.856 |
| NCI-H2347 | 0.555 |
| LXF-289 | 0.723 |
| NCI-H1666 | 0.876 |
| RERF-LC-KJ | 0.504 |
| NCI-H650 | 0.35 |
| NCI-H322M | 0.733 |
| NCI-H596 | 0.328 |

Same assay, conditions: first compound 4 µM

| Cell Line | relative viability |
| --- | --- |
| A-427 | 0.858 |
| NCI-H2009 | 0.658 |
| EKVX | 0.456 |
| NCI-H2087 | 0.853 |
| NCI-H1734 | 0.375 |
| LCLC-103H | 0.624 |
| LU99A | 0.334 |
| NCI-H460 | 0.434 |
| SK-LU-1 | 0.689 |
| COR-L23 | 0.272 |
| HCC-15 | 0.704 |
| NCI-H1944 | 0.326 |
| EMC-BAC-2 | 0.261 |
| NCI-H1395 | 0.537 |
| LC-2-ad | 0.496 |
| NCI-H2085 | 0.633 |
| NCI-H647 | 0.427 |

| Cell Line | relative viability |
| --- | --- |
| HARA | 0.391 |
| NCI-H3122 | 0.491 |
| NCI-H358 | 0.321 |
| CAL-12T | 0.64 |
| COR-L 105 | 0.838 |
| LCLC-97TM1 | 0.291 |
| NCI-H520 | 0.463 |
| NCI-H2228 | 0.413 |
| NCI-H23 | 0.332 |
| HCC-827 | 0.647 |
| NCI-H2347 | 0.49 |
| LXF-289 | 0.766 |
| NCI-H1666 | 0.727 |
| RERF-LC-KJ | 0.548 |
| NCI-H650 | 0.325 |
| NCI-H322M | 0.634 |
| NCI-H596 | 0.267 |
